Molecules are shown by their SMILES. Converted amounts (≈) assume the structure as drawn. Where two headings read alike, the source gives them in different places.

What all share (format): cell-based
In assay [1] the test system is Streptococcus pyogenes 1079. Description: MIC, microtiter broth dilution (NCCLS M100-S14), S. pyogenes 1079 (ermB). The procedure, abridged: (§1)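 Where available, resistant strains were tested alongside the susceptible parent they derive from. The MIC, determined by tray-based broth dilution and NCCLS M100-S14 interpretation, served as the comparison value.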
For orientation: In broth dilution the organism is exposed to a series of concentrations in liquid medium.

The test system of assay [2] is Haemophilus influenzae 1218. Description: MIC, microtiter broth dilution (NCCLS M100-S14), H. influenzae 1218 (susceptible). The procedure, abridged: as §1
For assay [3], the system named is Streptococcus pneumoniae 1016. Description: MIC, microtiter broth dilution (NCCLS M100-S14), S. pneumoniae 1016 (susceptible). The procedure, abridged: as §1
The subject of assay [4] is Streptococcus pneumoniae 1095. Particulars: microtiter broth dilution. The procedure, abridged:
as §1

The subject of assay [5] is Streptococcus pneumoniae 1175. Particulars: microtiter broth dilution. A digest of the protocol: as §1
Where [6] appears, read: H. influenzae 1218 (susceptible).
[7] abbreviates: S. pneumoniae 1016 (susceptible).

In the case of `CCC1OC(=O)C(C)C(=O)C(C)C(OC2OC(C)CC(N(C)C)C2O)C(C)(OC)CC(C)C(=O)C(C)C2N(CC3CN(C(=O)c4cccnc4)C3)C(=O)OC12C` (stereo not drawn) [4.03], the “MIC S. pyogenes 1079” value in assay [1] (Streptococcus pyogenes 1079) was more than 100.00 µg/mL. The “MIC H. influenzae 1218” value in assay [2] (Haemophilus influenzae 1218) turned out to be 1.56 µg/mL (≈ 1.98 µM). The “MIC S. pneumo. 1016” value in assay [3] (Streptococcus pneumoniae 1016) turned out to be 0.02 µg/mL (≈ 0.0254 µM). In addition, the “MIC S. pneumo. 1095” value in assay [4] (Streptococcus pneumoniae 1095) is 0.39 µg/mL (≈ 0.496 µM). Also, in assay [5] (Streptococcus pneumoniae 1175), the “MIC S. pneumo. 1175” value was found to be 0.78 µg/mL (≈ 0.991 µM).

`CC[C@H]1OC(=O)[C@H](C)C(=O)[C@H](C)[C@@H](O[C@@H]2O[C@H](C)C[C@H](N(C)C)[C@H]2O)[C@](C)(OC)C[C@@H](C)C(=O)[C@H](C)[C@H]2N(CC3(O)CN(Cc4cccc5nc[nH]c45)C3)C(=O)O[C@]12C` [7.08]: in assay [1] (S. pyogenes 1079 (ermB)), the “MIC S. pyogenes 1079” value was more than 64.00 µg/mL. The “MIC H. influenzae 1218” value in assay [2] (setting [6]) worked out at 0.25 µg/mL (≈ 0.302 µM). The “MIC S. pneumo. 1016” value in assay [3] (setting [7]) was less than 0.06 µg/mL. Besides, in assay [4] (S. pneumoniae 1095 (ermB)), the “MIC S. pneumo. 1095” value was less than 0.06 µg/mL. Also, in assay [5] (S. pneumoniae 1175 (mefA)), the “MIC S. pneumo. 1175” value turned out to be 0.25 µg/mL (≈ 0.302 µM).

For `CCC1OC(=O)C(C)C(=O)C(C)C(OC2OC(C)CC(N(C)C)C2O)C(C)(OC)CC(C)C(=O)C(C)C2N(C3CN(S(=O)(=O)c4ccc(F)cc4)C3)C(=O)OC12C` (stereo not drawn) [Example 3.09, 4-fluorobenzenesulfonyl], in assay [1] (Streptococcus pyogenes 1079), the “MIC S. pyogenes 1079” value was 16 µg/mL (≈ 19.4 µM). Also, in assay [2] (Haemophilus influenzae 1218), the “MIC H. influenzae 1218” value came out at 0.25 µg/mL (≈ 0.303 µM). The “MIC S. pneumo. 1016” value in assay [3] (Streptococcus pneumoniae 1016) was less than 0.06 µg/mL. The “MIC S. pneumo. 1095” value in assay [4] (Streptococcus pneumoniae 1095) is less than 0.06 µg/mL. Also, the “MIC S. pneumo. 1175” value in assay [5] (Streptococcus pneumoniae 1175) was found to be 0.25 µg/mL (≈ 0.303 µM).

In the case of `CC[C@H]1OC(=O)[C@H](C)C(=O)[C@H](C)[C@@H](O[C@@H]2O[C@H](C)C[C@H](N(C)C)[C@H]2O)[C@](C)(OC)C[C@@H](C)C(=O)[C@H](C)[C@H]2N(CC3(O)CN(C(=O)c4ccc5cccnc5n4)C3)C(=O)O[C@]12C` [7.17], the “MIC S. pyogenes 1079” value in assay [1] (S. pyogenes 1079 (ermB)) is more than 64.00 µg/mL. Also, in assay [2] (setting [6]), the “MIC H. influenzae 1218” value stood at 1 µg/mL (≈ 1.17 µM). Also, the “MIC S. pneumo. 1016” value in assay [3] (setting [7]) is less than 0.06 µg/mL. In assay [4] (S. pneumoniae 1095 (ermB)), the “MIC S. pneumo. 1095” value is less than 0.06 µg/mL. Further, the “MIC S. pneumo. 1175” value in assay [5] (S. pneumoniae 1175 (mefA)) is 0.5 µg/mL (≈ 0.585 µM).

On to `CCC1OC(=O)C(C)C(=O)C(C)C(OC2OC(C)CC(N(C)C)C2O)C(C)(OC)CC(C)C(=O)C(C)C2N(C3CN(C(=O)c4cncc5ccccc45)C3)C(=O)OC12C` (stereo not drawn) [Example 2.01], for which the “MIC S. pyogenes 1079” value in assay [1] (Streptococcus pyogenes 1079) is more than 64.00 µg/mL. In addition, in assay [2] (Haemophilus influenzae 1218), the “MIC H. influenzae 1218” value was found to be 4 µg/mL (≈ 4.86 µM). Moreover, the “MIC S. pneumo. 1016” value in assay [3] (Streptococcus pneumoniae 1016) was less than 0.06 µg/mL. For the same compound, the “MIC S. pneumo. 1095” value in assay [4] (Streptococcus pneumoniae 1095) was found to be 32 µg/mL (≈ 38.9 µM). Also, in assay [5] (Streptococcus pneumoniae 1175), the “MIC S. pneumo. 1175” value turned out to be 0.25 µg/mL (≈ 0.304 µM).

In the case of `CCC1OC(=O)C(C)C(=O)C(C)C(OC2OC(C)CC(N(C)C)C2O)C(C)(OC)CC(C)C(=O)C(C)C2N(C3CN(S(=O)(=O)c4cccc(-n5cccn5)c4)C3)C(=O)OC12C` (stereo not drawn) [Example 3.58, 3-descladinosyl-11,12-dideoxy-6-O-methyl-3-oxo-12,11-(oxycarbonyl-(1-(3-(1H-pyrazol-1-yl)benzenesulfonyl)-azetidin-3-yl)-imino)-erythromycin A], the “MIC S. pyogenes 1079” value in assay [1] (Streptococcus pyogenes 1079) came out at 4 µg/mL (≈ 4.58 µM). For the same compound, the “MIC H. influenzae 1218” value in assay [2] (Haemophilus influenzae 1218) was 1 µg/mL (≈ 1.14 µM). Further, the “MIC S. pneumo. 1016” value in assay [3] (Streptococcus pneumoniae 1016) is less than 0.06 µg/mL. Besides, the “MIC S. pneumo. 1095” value in assay [4] (Streptococcus pneumoniae 1095) was less than 0.06 µg/mL. Further, the “MIC S. pneumo. 1175” value in assay [5] (Streptococcus pneumoniae 1175) is less than 0.06 µg/mL.

With `CC[C@H]1OC(=O)[C@H](C)C(=O)[C@H](C)[C@@H](O[C@@H]2O[C@H](C)C[C@H](N(C)C)[C@H]2O)[C@](C)(OC)C[C@@H](C)C(=O)[C@H](C)[C@H]2N(CC3(C)CN(Cc4cccc5ncccc45)C3)C(=O)O[C@]12C` [6.02], in assay [1] (Streptococcus pyogenes 1079), the “MIC S. pyogenes 1079” value was found to be 32 µg/mL (≈ 38.2 µM). In addition, in assay [2] (Haemophilus influenzae 1218), the “MIC H. influenzae 1218” value worked out at 2 µg/mL (≈ 2.39 µM). The “MIC S. pneumo. 1016” value in assay [3] (Streptococcus pneumoniae 1016) was less than 0.06 µg/mL. The “MIC S. pneumo. 1095” value in assay [4] (Streptococcus pneumoniae 1095) was less than 0.06 µg/mL. The “MIC S. pneumo. 1175” value in assay [5] (Streptococcus pneumoniae 1175) was 0.25 µg/mL (≈ 0.299 µM).

Consider `CCC1OC(=O)C(C)C(=O)C(C)C(OC2OC(C)CC(N(C)C)C2O)C(C)(OC)CC(C)C(=O)C(C)C2N(C3CCN(Cc4c[nH]c5ncccc45)C3)C(=O)OC12C` [Example 9.03, 3-descladinosyl-11,12-dideoxy-6-O-methyl-3-oxo-12,11-(oxycarbonyl-(1-((1H-pyrrolo[2,3-b]pyridin-3-yl)-methyl)-(R)-pyrrolidin-3-yl)-imino)-erythromycin A], for which the “MIC S. pyogenes 1079” value in assay [1] (S. pyogenes 1079 (ermB)) worked out at 1 µg/mL (≈ 1.23 µM). The “MIC H. influenzae 1218” value in assay [2] (setting [6]) is 0.12 µg/mL (≈ 0.148 µM). In addition, the “MIC S. pneumo. 1016” value in assay [3] (setting [7]) is less than 0.06 µg/mL. Besides, the “MIC S. pneumo. 1095” value in assay [4] (S. pneumoniae 1095 (ermB)) was less than 0.06 µg/mL. In addition, in assay [5] (S. pneumoniae 1175 (mefA)), the “MIC S. pneumo. 1175” value is 0.5 µg/mL (≈ 0.616 µM).

For the compound `CCC1OC(=O)C(C)C(=O)C(C)C(OC2OC(C)CC(N(C)C)C2O)C(C)(OC)CC(C)C(=O)C(C)C2N(CC3CCCN3Cc3cccc(OC)n3)C(=O)OC12C` (stereo not drawn) [12.01], the “MIC S. pyogenes 1079” value in assay [1] (S. pyogenes 1079 (ermB)) was more than 64.00 µg/mL. Further, the “MIC H. influenzae 1218” value in assay [2] (setting [6]) was 8 µg/mL (≈ 9.79 µM). In assay [3] (setting [7]), the “MIC S. pneumo. 1016” value is less than 0.06 µg/mL. Further, the “MIC S. pneumo. 1095” value in assay [4] (S. pneumoniae 1095 (ermB)) was 2 µg/mL (≈ 2.45 µM). Besides, the “MIC S. pneumo. 1175” value in assay [5] (S. pneumoniae 1175 (mefA)) stood at 1 µg/mL (≈ 1.22 µM).

(Values after US7462600B2, “Macrolides” (Pfizer Inc, priority 2004, dated 2008).)
